Laboratory results taken from patent publication US8507464B2, “Phosphoramidate alkylator prodrugs” (Threshold Pharmaceuticals, Inc., priority 2005, dated 2013).
Read-outs that look alike come from different tables or passages of the source.

Tests used:
H460 cells = assay: Cell cycle distribution (flow cytometry); format: cell-based, human
HT29 monolayer = assay: Clonogenic survival of monolayer cells (Example 35); format: cell-based; details: Homo sapiens
HCT116 cells = assay: Multilayered cell culture (MCC) assay, inhibition of BrdU incorporation; format: cell-based; details: for IC50: Homo sapiens
Description: MCCs were incubated with oxygenated media (20% O2 & 5% O2) or hypoxic media (approximately 0% O2) and the test compound was exposed from one side (exposed surface, normoxic side) while the other side was temporarily closed off (far side, hypoxic side). When MCC's are incubated in media at 20% O2 or 5% O2 a gradient in oxygen develops from the surface exposed to the media towards the far surface of the culture. The furthest 50 μm of tissue becomes depleted of oxygen. The extent of O2 depletion is greater with 5% than the 20% O2 gassed media; incubation with 5% O2 reflects the in vivo situation most closely. Incubating MCCs with media at 0% O2 models perfusion limited hypoxia, where tumor blood vessels become completely depleted of oxygen and test compound must penetrate extensive distances to reach all cells. This situation therefore poses a greater barrier to drug penetration, if binding of activated drug acts to limit its penetration.
MCC based experiments were carried out with media gassed with 0, 5 or 20% O2 for 45 minutes prior to and during incubation with the test compound. HCT116 cells were grown to a thickness of 150 μm on a solid support and one side of the culture was clamped off to develop diffusion limited hypoxia. […] The cultures were incubated for a second hour in fresh media at 20% O2 and removed from the apparatus and returned to a normal growth chamber, where media flows over both sides of the MCC. Cultures were incubated for 24 hours prior to BrdUrd labeling and subsequent cryosectioning. BrdUrd labeling on the exposed and far sides of the MCC were analyzed using immunohistochemical staining, microscope imaging and computer image analysis to assess the effect of Compound 25 on cell proliferation.

[1] = test system: human (HLM) liver microsomal proteins; assay: Metabolic stability in liver microsomal protein; format: in vitro ADME; details: Table 2A, second study, 5 μM
NCI H460 xenograft = assay: NCI H460 non small cell lung carcinoma xenograft mouse model (Example 48); format: in vivo; details: day 29, vs vehicle
Description: Female CB17/SCID mice (purchased from Charles River, Cambridge, Mass.), 7-8 weeks of age, were allowed to acclimatize for at least three days, and handled under pathogen-free conditions. Human […] cell line NCI H460 was obtained from the American Type Culture Collection. The cell lines were cultured and harvested according to the procedure described in Example 47 and inoculated at 1×10^6 cells/animal in the peritoneal subcutaneous space. When the tumors grew to an average volume of 100 mm^3 (day 8), […], as tabulated in the table below: Compound 25 (2.5 mg/ml in 10% PEG; administration route—i.p.) and Taxol (1 mg/ml in 5% EtOH, 5% Cremophor and 90% saline; administration—i.v. 2 h after administration of Compound 25). The body weight and tumor volumes were measured as described in Example 47 above.
Results are presented in Table X2 based on tumor volume measurement on day 29 when vehicle treated mice had reached a volume of 946 mm^3. Groups of 5 mice receiving saline or no treatment were added in order to indicate any vehicle effects but are not used for comparisons in this analysis.

[2] = Preliminary toxicity in mice (Example 56); format: in vivo
Text: It is recognized that efficacious molecules for treatment of human diseases including cancer may be toxic at doses near or sometime much greater than doses necessary to achieve beneficial effects. To determine appropriate dose and route of administering such a compound, it is necessary to understand its toxicity. Routinely, initial approaches to determining the toxic dose involve the use of rodents such as mice to provide preliminary data that might support the design of similar studies in larger animals and humans. Test compounds (Compounds 24, 25 and 36) were tested in mice as preliminary experiments for determining doses to be used in larger animals. […] These doses selected represent an approximation of doses that might be used in larger animals such as rats and dogs for the purpose of confirming that such toxicities exist and for predicting if renal function should be measured in humans.

NCI-H460 cells = assay: Clonogenic assay - oxygen dependence; details: Homo sapiens
AA8 = assay: Clonogenic survival - DNA mutant repair cells; details: Cricetulus griseus
UV41 = assay: Clonogenic survival - DNA mutant repair cells; details: Cricetulus griseus
in vivo = details: CD-1, mouse, 50 mg/kg

## Cn1c(COP(=O)(NCCBr)NCCBr)cnc1[N+](=O)[O-] [Compound 25]
H460 cells; 0.005 μM, Air
  Cell cycle G0/G1: 38
  Cell cycle G2/M: 42
  Cell cycle S: 18
H460 cells; 0.005 μM, Nitrogen
  Cell cycle G0/G1: 50
  Cell cycle G2/M: 38
  Cell cycle S: 12
H460 cells; 0.05 μM, Air
  Cell cycle G0/G1: 58
  Cell cycle G2/M: 28
  Cell cycle S: 11
H460 cells; 0.05 μM, Nitrogen
  Cell cycle G0/G1: 30
  Cell cycle G2/M: 59
  Cell cycle S: 7
H460 cells; 0.5 μM, Air
  Cell cycle G0/G1: 58
  Cell cycle G2/M: 28
  Cell cycle S: 11
H460 cells; 0.5 μM, Nitrogen
  Cell cycle G0/G1: 23
  Cell cycle G2/M: 40
  Cell cycle S: 31
H460 cells; 5 μM, Air
  Cell cycle G0/G1: 42
  Cell cycle G2/M: 59
  Cell cycle S: 6
H460 cells; 5 μM, Nitrogen
  Cell cycle G0/G1: 47
  Cell cycle G2/M: 17
  Cell cycle S: 15
H460 cells; 50 μM, Air
  Cell cycle G0/G1: 14
  Cell cycle G2/M: 65
  Cell cycle S: 19
H460 cells; 50 μM, Nitrogen
  Cell cycle G0/G1: 33
  Cell cycle G2/M: 11
  Cell cycle S: 14
HT29 monolayer; HT-29, read-out: IC90 HT29 Monolayer 0.6% O2
  IC90: 3 µM
HT29 monolayer; HT-29, read-out: IC90 HT29 Monolayer Air
  IC90: 40 µM
HT29 monolayer; HT-29, read-out: IC90 HT29 Monolayer N2
  IC90: 0.2 µM
HCT116 cells; 0% O2 vs 5% O2
  fold reduction in exposure to the hypoxic side under 0% O2 relative to 5% O2: Approximately 3 fold
HCT116 cells; 5% O2
  fold more effective at inhibiting BrdU incorporation on the hypoxic side compared to the normoxic side: 10 fold
HCT116 cells; 20% O2
  fold less compound required on the far (hypoxic) side compared to the exposed (normoxic) side: 5 fold
HCT116 cells; HCT-116, read-out: IC50 (BrdU), Hypoxic side, 5% O2
  IC50: 0.7 µM
HCT116 cells; HCT-116, read-out: IC50 (BrdU), Hypoxic side, 20% O2
  IC50: 2.6 µM
HCT116 cells; HCT-116, read-out: IC50 (BrdU), Normoxic side, 5% O2
  IC50: 8 µM
HCT116 cells; HCT-116, read-out: IC50 (BrdU), Normoxic side, 20% O2
  IC50: > 10 µM
HCT116 cells; HCT-116, read-out: IC50 (inhibit BrdU incorporation by 50%), Hypoxic side, 0% O2
  IC50: ~1.1 µM
HCT116 cells; HCT-116, read-out: IC50 (BrdU), Normoxic side, 0% O2
  IC50: ~1.7 µM
[1]
  Metabolic stability (% at 30 min) HLM: 127%
NCI H460 xenograft; Group 3: Compound 25 25 mg/kg (q1d × 5)/week × 2 weeks
  % Inhibition vs Group 2: 50.1%
NCI H460 xenograft; Group 4: Compound 25 50 mg/kg (q2d × 3)/week × 2 weeks
  % Inhibition vs Group 2: 52%
NCI H460 xenograft; Group 5: Compound 25 100 mg/kg (q7d × 1)/week × 2 weeks
  % Inhibition vs Group 2: 46.7%
[2]
  white blood cells: Transient reductions in white blood cells
[2]; 300 mg/kg single dose
  toxicity at 300 mg/kg single dose: renal toxicities such as tubular necrosis and protein spillage into the urine
[2]; 100 and 200 mg/kg
  toxicity at lower doses (100 and 200 mg/kg): little toxicity
NCI-H460 cells; NCI-H460, read-out: IC90 H460 0.1% O2
  IC90: 0.4 µM
NCI-H460 cells; NCI-H460, read-out: IC90 H460 0.6% O2
  IC90: 5 µM
NCI-H460 cells; NCI-H460, read-out: IC90 H460 Air
  IC90: 30 µM
NCI-H460 cells; NCI-H460, read-out: IC90 H460 N2
  IC90: 0.1 µM
AA8; CHO-AA8, read-out: IC90 AA8 Air
  IC90: > 300 µM
AA8; CHO-AA8, read-out: IC90 AA8 N2
  IC90: 0.85 µM
UV41; read-out: IC90 UV41 Air
  IC90: 17 µM
UV41; read-out: IC90 UV41 N2
  IC90: 0.02 µM

## Cn1c(COP(=O)(NCCCl)NCCCl)cnc1[N+](=O)[O-] [Compound 36]
In vivo; ip
  AUC: 1440 µg·h/mL
  Cmax: 44000 ng/mL
  Tmax: 15 min
  half-life: 11 min
In vivo; iv
  AUC: 646 µg·h/mL
  Cmax: 27700 ng/mL
  Tmax: 5 min
  half-life: 14.1 min
